Experimental data as given in US20230096766A1, “AMINO ACID HAVING FUNCTIONAL GROUP CAPABLE OF INTERMOLECULAR HYDROGEN BONDING, PEPTIDE COMPOUND CONTAINING SAME AND METHOD FOR PRODUCTION THEREOF” (Chugai Seiyaku Kabushiki Kaisha, priority 2018, published 2023).
*1 amine or outer side, *2 acyl side, *3 side chain or, on linkers, in order; H or OH if unused. Where a SMILES comes first, the peptide text is derived from it. Bridges are numbered along the chain shown (N, C = ends). [ ]: non-standard residue; d: D form. The star is where a group is joined. Phe(3-OMe,4-CONHMs) = COc1cc(C[C@H](N)C(=O)O)ccc1C(=O)NS(C)(=O)=O; NMePhe(3-Cl) = CN[C@@H](Cc1cccc(Cl)c1)C(=O)O; X12 = O=C([C@H](CCCC(O)C(F)(F)F)N[*:1])[*:2]; NMehPhe = CN[C@@H](CCc1ccccc1)C(=O)O; X9 = O=C([C@@H](CN[*:1])COCCO)[*:2]; NMeF = CN[C@@H](Cc1ccccc1)C(=O)O; NMeGABA = CN(CCCC(=O)[*:2])[*:1]; Butyl(3-Me,3-OH) = CC(C)(O)CC*; NMeL = CN[C@@H](CC(C)C)C(=O)O; NMeV = CN[C@H](C(=O)O)C(C)C; NMeA = CN[C@@H](C)C(=O)O; Piperidide = C1CCN(*)CC1; Abu = CC[C@H](N)C(=O)O; Ethyl(2-OH) = OCC*; Sar = CNCC(=O)O; tBu = CC(C)(C)*

Assay: in vitro
Details: human
[1] = Caco-2, Caco-2 (membrane permeability)

SMILES	Papp (Caco-2, Caco-2 (cm/sec)) [×10⁻⁶ cm/s]	also measured
CC(C)C[C@@H]1NC(=O)[C@H](CC(C)C)N(C)C(=O)[C@@H](C)NC(=O)C[C@@H](C(=O)N2CCCCC2)NC(=O)[C@H](Cc2ccccc2)N(C)C(=O)[C@H](Cc2ccccc2)N(C)C(=O)[C@H](C)N(C)C(=O)[C@H]([C@@H](C)O)NC(=O)[C@H](Cc2ccccc2)N(C)C(=O)[C@H](COC(C)(C)C)NC(=O)[C@H](Cc2ccccc2)N(C)C1=O [pd234] ([dA][NMeL]L[NMeF]S(tBu)[NMeF]T[NMeA][NMeF][NMeF]D-Piperidide; lactam N-11)		Papp (Caco-2, Caco-2 (cm/sec) Papp): 0.15 ×10⁻⁶ cm/s
CC(C)C[C@@H]1NC(=O)[C@H](Cc2cccc(Cl)c2)N(C)C(=O)[C@H](CC(C)C)N(C)C(=O)[C@H](COCCO)NC(=O)[C@H](C(C)C)N(C)C(=O)C[C@@H](C(=O)N2CCCCC2)NC(=O)[C@H](CC(C)C)N(C)C(=O)CN(C)C(=O)[C@H]([C@@H](C)O)NC(=O)[C@H](CC(C)C)N(C)C(=O)[C@H](CCc2ccccc2)N(C)C1=O [Compound A09] ([NMeV]S(Ethyl(2-OH))[NMeL][NMePhe(3-Cl)]L[NMehPhe][NMeL]T[Sar][NMeL]D-Piperidide; lactam N-11)	0.72	
CC(C)C[C@H]1C(=O)N[C@@H](CCCC(O)C(F)(F)F)C(=O)N(C)[C@@H](Cc2cccc(Cl)c2)C(=O)N(C)[C@@H](Cc2ccccc2)C(=O)N[C@@H](COC(C)(C)C)C(=O)N(C)[C@@H](CC(C)C)C(=O)N[C@@H]([C@@H](C)O)C(=O)N(C)[C@@H](CC(C)C)C(=O)N(C)[C@@H](CC(C)C)C(=O)N[C@H](C(=O)N2CCCCC2)CC(=O)N(C)CCCC(=O)N1C (stereo partly drawn) [Compound D02] ([NMeGABA][NMeL][X12][NMePhe(3-Cl)][NMeF]S(tBu)[NMeL]T[NMeL][NMeL]D-Piperidide; lactam N-11)		Papp [1]: 0.14 ×10⁻⁶ cm/s
CC[C@H](C)[C@@H]1NC(=O)[C@H](CC(C)C)N(C)C(=O)CCCN(C)C(=O)C[C@@H](C(=O)N2CCCCC2)NC(=O)[C@H](CC(C)C)N(C)C(=O)[C@H](CC(C)C)N(C)C(=O)[C@H]([C@@H](C)O)NC(=O)[C@H](CC(C)C)N(C)C(=O)[C@H](COCCO)CNC(=O)[C@H](CC(C)C)N(C)C(=O)[C@H](Cc2cccc(Cl)c2)N(C)C1=O [AP130] ([NMeGABA][NMeL]I[NMePhe(3-Cl)][NMeL][X9][NMeL]T[NMeL][NMeL]D-Piperidide; lactam N-11)	0.46	
CC[C@H](C)[C@@H]1NC(=O)[C@H](CC(C)C)N(C)C(=O)CCCN(C)C(=O)C[C@@H](C(=O)N2CCCCC2)NC(=O)[C@H](CC(C)C)N(C)C(=O)[C@H](CC(C)C)N(C)C(=O)[C@H]([C@@H](C)O)NC(=O)[C@H](CC(C)C)N(C)C(=O)[C@H](CCCC(O)C(F)(F)F)NC(=O)[C@H](Cc2ccccc2)N(C)C(=O)[C@H](Cc2ccccc2)N(C)C1=O (stereo partly drawn) [Compound D03] ([NMeGABA][NMeL]I[NMeF][NMeF][X12][NMeL]T[NMeL][NMeL]D-Piperidide; lactam N-11)		Papp [1]: 0.33 ×10⁻⁶ cm/s
CC(C)C[C@@H]1NC(=O)[C@H](C)N(C)C(=O)C[C@@H](C(=O)N2CCCCC2)NC(=O)[C@H](CC(C)C)N(C)C(=O)CN(C)C(=O)[C@H]([C@@H](C)O)NC(=O)[C@H](CC(C)C)N(C)C(=O)[C@H](CCc2ccccc2)N(C)C(=O)[C@H](COCCC(C)(C)O)NC(=O)[C@H](Cc2ccccc2)N(C)C(=O)[C@H](CC(C)C)N(C)C1=O [AP56] ([NMeA]L[NMeL][NMeF]S(Butyl(3-Me,3-OH))[NMehPhe][NMeL]T[Sar][NMeL]D-Piperidide; lactam N-11)	1.3	
CC[C@@H]1NC(=O)[C@H](CC(C)C)N(C)C(=O)[C@H](Cc2ccccc2)N(C)C(=O)CN(C)C(=O)[C@H](Cc2ccc(C(=O)NS(C)(=O)=O)c(OC)c2)NC(=O)[C@H](CC(C)C)N(C)C(=O)[C@H](C(C)C)NC(=O)[C@H](CC(C)C)N(C)C(=O)CN(C)C(=O)C[C@@H](C(=O)N2CCCCC2)NC(=O)[C@H](CC(C)C)N(C)C1=O [AP143] ([Sar][NMeL]V[NMeL][Phe(3-OMe,4-CONHMs)][Sar][NMeF][NMeL][Abu][NMeL]D-Piperidide; lactam N-11)	0.13	
